Here are results for twelve molecules from ChEMBL document CHEMBL1201862, “PubChem BioAssay data set” (2004).

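Briefly, cells in 96-well plates were exposed to five compound concentrations for 48 h, and endpoints were estimated by linear interpolation. GI50 marks 50% less growth.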 Active and inactive are the calls of the source. Cut-off read from the data, not from the text of the source: active = GI50 up to about 1.1 µM and inactive = higher. Some results are limits rather than exact numbers.

Assay in all cases: growth of human tumour cells (NCI), 48 h
Test [1] has as its system DU-145.
Test [2] concerns EKVX.
The test system of test [3] is HCT-116.
In test [4] the test system is HCT-15.
The subject of test [5] is MDA-MB-435.
The subject of test [6] is MDA-N.
Test [7] has as its system Malme-3M.
The subject of test [8] is NCI-H23.
The test system of test [9] is NCI/ADR-RES.
Test [10] deals with OVCAR-5.
Test [11] deals with OVCAR-8.
Test [12] relates to RXF 393.
The test system of test [13] is SF-268.
Test [14] relates to SF-295.
Test [15] deals with SF-539.
The test system of test [16] is SK-MEL-2.
The test system of test [17] is UACC-62.
Test [18] deals with ACHN.
Test [19] deals with SR.
Test [20] concerns BT-549.

Turning to `COc1ccc(/C=C/C(=O)CC(=O)/C=C/c2ccc(OC)cc2)cc1`, the GI50 in test [1] was 74.5 µM (inactive); in test [2] it was 54.7 µM (inactive); in test [3], 15.3 µM (inactive); in [4], 42.9 µM; in test [5] it was 38.6 µM (inactive); in test [6], 20.7 µM (inactive). Also, the GI50 in [7] was 34.5 µM (inactive); in [8] it was 8.53 µM (inactive); in [9] it was 36.1 µM (inactive); in test [10], 46.2 µM (inactive); in test [11], 21.4 µM (inactive); in test [12], 23.8 µM (inactive). Further, the GI50 in test [13] is 46.3 µM (inactive); in [14], 27.9 µM (inactive); in test [15], 30.3 µM (inactive); in test [16], > 100 µM (inactive); in test [17], 54.2 µM (inactive).
Turning to `CC(C)[C@H](NC(=O)OCc1ccccc1)C(=O)N[C@H](/C=C/C(=O)OC(C)(C)C)CO`, the GI50 in [18] was > 100 µM (inactive); in test [1], > 100 µM (inactive); in [2], > 100 µM (inactive); in test [3], 71.9 µM (inactive); in test [4] it was > 100 µM; in [5] it was > 100 µM (inactive). The GI50 in test [6], in test [7], in [8], in test [9], in [10] and in test [11] was > 100 µM (inactive) each time. Further, the GI50 in [12], in test [13], in test [14], in test [15], in test [16] and in test [19] was > 100 µM (inactive) each time. Further, the GI50 in [17] was > 100 µM (inactive).
As for `CC(=O)c1sc2c(c1OC(=O)c1cccs1)c(=O)n(-c1ccccc1)c(=S)n2-c1ccccc1`, the GI50 was 3.54 µM (inactive) in test [18]; 26.8 µM (inactive) in test [1]; 25.1 µM (inactive) in [2]; 16.9 µM (inactive) in [3]; 17.5 µM in test [4]; 8.24 µM (inactive) in [5]. For the same molecule, the GI50 in test [6] was 5.5 µM (inactive); in test [7], 2.8 µM (inactive); in test [8], 19.3 µM (inactive); in test [9] it was 15.2 µM (inactive); in test [10], 3.29 µM (inactive); in test [11], 5.01 µM (inactive). Further, the GI50 in test [12] is 3.86 µM (inactive); in test [13], 6.07 µM (inactive); in test [14], 2.62 µM (inactive); in test [15], 2.41 µM (inactive); in [17] it was 19.9 µM (inactive).
`OC(c1ccccc1)c1c(-c2ccccc2)[nH]c(-c2ccccc2)c1C(O)c1ccccc1` (stereo not drawn): the GI50 in test [18] is 3.17 µM (inactive); in test [1] it was 5.28 µM (inactive); in test [2], 3.21 µM (inactive); in test [3], 2.84 µM (inactive); in test [4], 3.76 µM; in test [5] it was 3.18 µM (inactive). For the same molecule, the GI50 in test [6] is 2.59 µM (inactive); in test [7] it was 2.59 µM (inactive); in test [8] it was 3.52 µM (inactive); in test [9] it was 2.69 µM (inactive); in [10], 2.77 µM (inactive); in [12] it was 2.88 µM (inactive). Moreover, the GI50 in [13] is 4.16 µM (inactive); in test [14] it was 3.75 µM (inactive); in [15], 2.95 µM (inactive); in test [16], 1.95 µM (inactive); in test [19], 4.1 µM (inactive); in [17] it was 2.84 µM (inactive).
In the case of `O=C(Nc1nc2ncn(CCOC(=O)c3ccccc3)c2c(=O)[nH]1)c1ccccc1`, the GI50 was > 81.1 µM (inactive) in [18]; 31.8 µM (inactive) in test [1]; > 84.3 µM (inactive) in test [2]; 4.43 µM (inactive) in [3]; 4.7 µM in [4]; 2.48 µM (inactive) in test [5]. Further, the GI50 in [6] is 2.54 µM (inactive); in test [7], 42.3 µM (inactive); in test [8] it was 20.1 µM (inactive); in [9], 66.2 µM (inactive); in test [10], > 100 µM (inactive); in [11], 33.3 µM (inactive). The GI50 was 42.4 µM (inactive) in test [12]; 26.2 µM (inactive) in test [13]; 12.9 µM (inactive) in test [14]; 10.8 µM (inactive) in [15]; 35.2 µM (inactive) in test [16]; 5.35 µM (inactive) in test [19]. Besides, the GI50 in test [17] was 9.12 µM (inactive).
With `O=[N+]([O-])C(=C1Nc2ccccc2N1)/C(Cl)=C(/Cl)N1CCOCC1`, the GI50 in test [18] was 71.8 µM (inactive); in test [20] it was 27.5 µM (inactive); in [2], > 100 µM (inactive); in [3] it was 89.5 µM (inactive); in test [4], 31.8 µM; in [5], > 100 µM (inactive). In addition, the GI50 in test [6] was > 100 µM (inactive); in test [7], 27.2 µM (inactive); in test [8], 29.3 µM (inactive); in test [9] it was 57.8 µM (inactive); in test [10] it was > 100 µM (inactive); in [11], 28.8 µM (inactive). Besides, the GI50 is 22.6 µM (inactive) in [13]; 98.4 µM (inactive) in test [14]; > 100 µM (inactive) in test [15]; > 100 µM (inactive) in test [16]; 77.6 µM (inactive) in [17].
`COc1ccc(COCC[C@H](C)OC2OC(CO)C(O)C(O)C2O)cc1` (stereo partly drawn): the GI50 in [18] was > 100 µM (inactive); in test [20], > 100 µM (inactive); in test [1], > 100 µM (inactive); in test [2], > 100 µM (inactive); in [3] it was > 100 µM (inactive); in [4], > 100 µM. The GI50 in test [5], in [8], in test [9], in test [10], in test [11] and in test [12] was > 100 µM (inactive) each time. The GI50 in test [13], in test [14], in [15], in [16], in test [19] and in [17] was > 100 µM (inactive) in each case.
As to `N#C/C(=C\c1cc2ccccc2c2ccccc12)c1ccccc1`, the GI50 was 14.5 µM (inactive) in test [18]; 20 µM (inactive) in test [2]; 5.3 µM (inactive) in test [3]; 5.24 µM in test [4]; 4.86 µM (inactive) in test [7]; > 30.5 µM (inactive) in test [8]. Moreover, the GI50 in test [10] was 45.4 µM (inactive); in test [11], 30 µM (inactive); in [12] it was 5.66 µM (inactive); in test [13], 8.17 µM (inactive); in test [14], 5.93 µM (inactive); in test [15], 6.15 µM (inactive). Moreover, the GI50 is 3.39 µM (inactive) in [16], 2.9 µM (inactive) in test [19] and 3.75 µM (inactive) in test [17].
Consider `c1ccc2c(c1)sc1c3cnccc3ccc21`, for which the GI50 was 90.4 µM (inactive) in [18]; > 100 µM (inactive) in test [20]; > 100 µM (inactive) in test [1]; 6.71 µM (inactive) in test [2]; > 100 µM (inactive) in test [3]; > 100 µM in test [4]. Further, the GI50 in [5] was > 100 µM (inactive); in [7], 66.8 µM (inactive); in test [8] it was > 100 µM (inactive); in test [9] it was > 100 µM (inactive); in test [10], > 100 µM (inactive); in [13], > 100 µM (inactive). The GI50 in [14] was 85.9 µM (inactive); in test [15] it was 82.2 µM (inactive); in test [16], > 100 µM (inactive); in test [19], 11.6 µM (inactive); in test [17], 80.4 µM (inactive).
As to `N#CCCNCCN(CCN(C(=O)Nc1ccccc1)c1ccccc1)C(=O)Nc1ccccc1`, the GI50 was 47.2 µM (inactive) in test [18]; 38.4 µM (inactive) in test [20]; 66.8 µM (inactive) in [1]; 67.1 µM (inactive) in test [2]; 21.4 µM (inactive) in test [3]; 41.5 µM in test [4]. The GI50 in test [6] is 47 µM (inactive); in test [7], 23.4 µM (inactive); in [8], 33.2 µM (inactive); in test [9], 58.3 µM (inactive); in test [10], 64.6 µM (inactive); in [11], 59.4 µM (inactive). Further, the GI50 in [12] was 31.7 µM (inactive); in [13] it was 63.5 µM (inactive); in test [14], 51.8 µM (inactive); in test [16] it was 38.4 µM (inactive); in test [19], 34.2 µM (inactive); in [17] it was 32.2 µM (inactive).
For `COc1cc(OC)c2c(c1-c1ccc(C)cc1)CC(C)N(Cc1ccccc1)[C@H]2C` (stereo partly drawn), the GI50 in test [18] is 18.3 µM (inactive); in [20] it was 28.2 µM (inactive); in test [1] it was 86.3 µM (inactive); in test [2] it was 43.9 µM (inactive); in [3], 20.3 µM (inactive); in test [4] it was 35.9 µM. In addition, the GI50 in [5] is 33.3 µM (inactive); in test [6], 33.7 µM (inactive); in [7], 19.3 µM (inactive); in [8] it was 35 µM (inactive); in [11], 39.4 µM (inactive); in [13], 31.3 µM (inactive). In addition, the GI50 in [14] is 70.3 µM (inactive); in test [15], 32.1 µM (inactive); in test [19] it was 30.3 µM (inactive); in test [17] it was 39.1 µM (inactive).
Consider `O=C(O)/C=C/C(=O)O` [FUMARIC ACID], for which the GI50 is > 100 µM (inactive) in test [18]; > 100 µM (inactive) in test [1]; > 100 µM (inactive) in test [2]; > 100 µM (inactive) in test [3]; > 100 µM in test [4]; > 100 µM (inactive) in test [5]. Besides, the GI50 in test [6], in [7], in [8], in test [9], in test [10] and in test [11] was > 100 µM (inactive) in each case. Moreover, the GI50 in test [13], in [14], in [15], in test [16] and in test [19] was > 100 µM (inactive) in each case.
